From ChEMBL document CHEMBL5465560, “Selectivity Literature for EUbOPEN Chemogenomic Library” (2024)
Blank lines part the entries; values can stand above or below the molecule they belong to.

Legend:
[1] = target: Histone-lysine N-methyltransferase SETD2 (Homo sapiens) (UniProt Q9BYW2); assay: Selectivity interaction (Methyltransferase screen (radiometric assays, panel of 8 PRMTs, 21 protein lysine methyltransferases, 3 DNA methyltransferases, and one RNA methyltransferase)) EUB0000272b SETD2
[2] = target: T1, Ephrin type-A receptor 6 (Homo sapiens) (UniProt Q9UF33); assay: Selectivity interaction (KinomeScan (DiscoverX)) EUB0000666a EPHA6; conditions: at 10 µM
T1 sequence (whole entry): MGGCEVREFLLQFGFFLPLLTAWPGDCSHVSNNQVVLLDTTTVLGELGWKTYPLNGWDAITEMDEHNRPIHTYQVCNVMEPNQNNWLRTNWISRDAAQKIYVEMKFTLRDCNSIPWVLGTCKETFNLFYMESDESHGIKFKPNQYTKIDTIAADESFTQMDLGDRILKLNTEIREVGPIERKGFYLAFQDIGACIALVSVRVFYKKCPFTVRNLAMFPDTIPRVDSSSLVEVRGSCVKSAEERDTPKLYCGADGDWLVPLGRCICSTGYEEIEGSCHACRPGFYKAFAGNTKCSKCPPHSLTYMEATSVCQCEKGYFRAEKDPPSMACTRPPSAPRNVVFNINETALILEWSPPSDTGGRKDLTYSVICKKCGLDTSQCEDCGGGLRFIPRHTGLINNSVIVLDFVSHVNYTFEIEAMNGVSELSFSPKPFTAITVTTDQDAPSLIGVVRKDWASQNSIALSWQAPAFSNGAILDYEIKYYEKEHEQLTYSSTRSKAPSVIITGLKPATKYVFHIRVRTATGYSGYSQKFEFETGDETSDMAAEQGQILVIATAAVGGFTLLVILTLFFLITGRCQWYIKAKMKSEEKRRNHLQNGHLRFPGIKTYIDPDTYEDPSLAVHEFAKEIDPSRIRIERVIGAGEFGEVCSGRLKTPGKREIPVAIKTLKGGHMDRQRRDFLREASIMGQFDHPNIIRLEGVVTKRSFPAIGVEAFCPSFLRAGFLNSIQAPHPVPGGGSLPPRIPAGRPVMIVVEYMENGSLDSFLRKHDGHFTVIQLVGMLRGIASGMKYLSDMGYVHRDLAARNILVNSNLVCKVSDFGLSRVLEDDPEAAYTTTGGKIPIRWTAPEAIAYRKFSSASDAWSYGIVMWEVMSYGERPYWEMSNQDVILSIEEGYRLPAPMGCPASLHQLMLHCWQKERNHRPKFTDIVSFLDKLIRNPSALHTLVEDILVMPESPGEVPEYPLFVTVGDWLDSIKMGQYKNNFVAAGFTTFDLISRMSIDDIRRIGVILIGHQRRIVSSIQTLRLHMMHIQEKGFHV

[3] = target: T2, Serine/threonine-protein kinase Nek9 (Homo sapiens) (UniProt Q8TD19); assay: Selectivity interaction (KinomeScan (DiscoverX)) EUB0000666a NEK9; conditions: at 10 µM
T2 sequence (whole entry): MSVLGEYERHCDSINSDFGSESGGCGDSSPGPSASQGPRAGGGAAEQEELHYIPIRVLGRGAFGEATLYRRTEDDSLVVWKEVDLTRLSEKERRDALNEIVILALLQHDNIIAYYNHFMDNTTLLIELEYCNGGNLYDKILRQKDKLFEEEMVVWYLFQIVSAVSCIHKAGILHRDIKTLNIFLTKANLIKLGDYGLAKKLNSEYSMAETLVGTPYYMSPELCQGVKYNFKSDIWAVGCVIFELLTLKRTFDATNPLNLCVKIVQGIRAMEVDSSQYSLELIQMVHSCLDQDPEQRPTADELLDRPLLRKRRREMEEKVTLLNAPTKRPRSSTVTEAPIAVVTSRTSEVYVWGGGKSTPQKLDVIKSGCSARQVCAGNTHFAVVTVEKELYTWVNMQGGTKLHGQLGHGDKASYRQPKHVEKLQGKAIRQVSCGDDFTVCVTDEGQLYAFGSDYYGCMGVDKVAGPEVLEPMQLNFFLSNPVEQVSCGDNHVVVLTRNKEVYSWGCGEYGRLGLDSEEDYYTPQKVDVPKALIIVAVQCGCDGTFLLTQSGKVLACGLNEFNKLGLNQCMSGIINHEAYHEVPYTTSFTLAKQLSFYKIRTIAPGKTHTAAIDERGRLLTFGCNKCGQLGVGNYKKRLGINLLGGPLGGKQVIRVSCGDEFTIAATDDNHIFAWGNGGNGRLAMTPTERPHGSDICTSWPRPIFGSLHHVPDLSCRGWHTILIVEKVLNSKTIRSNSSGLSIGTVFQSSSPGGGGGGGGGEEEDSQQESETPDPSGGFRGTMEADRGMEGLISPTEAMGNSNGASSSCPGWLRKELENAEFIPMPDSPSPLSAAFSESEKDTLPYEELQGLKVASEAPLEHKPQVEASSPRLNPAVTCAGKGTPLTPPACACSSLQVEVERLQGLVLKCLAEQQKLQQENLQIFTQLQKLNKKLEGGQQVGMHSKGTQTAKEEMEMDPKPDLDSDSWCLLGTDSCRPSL

[4] = target: Cyclin-dependent kinase-like 3 (Homo sapiens) (UniProt Q8IVW4); assay: Selectivity interaction (Ambit KINOMEscan and KiNATiv profiling in Jurkat cells) EUB0000090b CDKL3; type: cell-based; conditions: at 1 µM
Cyclin-dependent kinase-like 3 (Homo sapiens), sequence (Q8IVW4 whole entry, looked up): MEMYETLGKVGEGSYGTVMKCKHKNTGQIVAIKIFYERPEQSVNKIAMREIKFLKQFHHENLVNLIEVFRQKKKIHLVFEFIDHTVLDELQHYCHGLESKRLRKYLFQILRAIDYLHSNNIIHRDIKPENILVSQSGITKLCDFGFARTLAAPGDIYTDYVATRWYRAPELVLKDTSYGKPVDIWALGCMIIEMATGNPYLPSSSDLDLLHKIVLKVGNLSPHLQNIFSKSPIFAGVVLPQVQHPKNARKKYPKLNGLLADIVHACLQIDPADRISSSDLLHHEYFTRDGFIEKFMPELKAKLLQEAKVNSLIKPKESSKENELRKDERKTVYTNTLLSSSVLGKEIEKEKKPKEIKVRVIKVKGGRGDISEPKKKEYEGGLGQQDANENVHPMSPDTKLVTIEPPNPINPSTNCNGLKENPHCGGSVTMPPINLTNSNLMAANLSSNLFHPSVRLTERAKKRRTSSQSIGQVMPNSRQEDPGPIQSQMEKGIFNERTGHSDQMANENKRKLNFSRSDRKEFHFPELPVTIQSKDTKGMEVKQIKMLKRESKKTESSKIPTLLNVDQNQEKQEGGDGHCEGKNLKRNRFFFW

[5] = target: Receptor-interacting serine/threonine-protein kinase 2 (Homo sapiens, UniProt O43353); assay: Selectivity interaction (KinomeScan (DiscoverX)) EUB0000045b RIPK2
Receptor-interacting serine/threonine-protein kinase 2, sequence (O43353 whole entry): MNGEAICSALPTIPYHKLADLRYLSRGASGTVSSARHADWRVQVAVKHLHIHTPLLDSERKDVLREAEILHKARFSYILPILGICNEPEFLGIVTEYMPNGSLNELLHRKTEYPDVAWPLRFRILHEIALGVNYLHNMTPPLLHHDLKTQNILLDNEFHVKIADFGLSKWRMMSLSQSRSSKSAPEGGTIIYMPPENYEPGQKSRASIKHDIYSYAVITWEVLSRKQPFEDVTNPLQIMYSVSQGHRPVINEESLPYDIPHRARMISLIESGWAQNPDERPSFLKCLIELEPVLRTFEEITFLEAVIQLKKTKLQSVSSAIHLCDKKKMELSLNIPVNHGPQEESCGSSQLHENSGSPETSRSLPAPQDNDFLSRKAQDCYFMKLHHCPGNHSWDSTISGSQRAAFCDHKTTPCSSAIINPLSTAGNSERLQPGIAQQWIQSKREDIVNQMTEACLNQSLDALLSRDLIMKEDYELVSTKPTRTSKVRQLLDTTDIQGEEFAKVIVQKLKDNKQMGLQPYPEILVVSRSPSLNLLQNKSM

Histone-lysine N-methyltransferase SETD2 (Homo sapiens), sequence (Q9BYW2 whole entry): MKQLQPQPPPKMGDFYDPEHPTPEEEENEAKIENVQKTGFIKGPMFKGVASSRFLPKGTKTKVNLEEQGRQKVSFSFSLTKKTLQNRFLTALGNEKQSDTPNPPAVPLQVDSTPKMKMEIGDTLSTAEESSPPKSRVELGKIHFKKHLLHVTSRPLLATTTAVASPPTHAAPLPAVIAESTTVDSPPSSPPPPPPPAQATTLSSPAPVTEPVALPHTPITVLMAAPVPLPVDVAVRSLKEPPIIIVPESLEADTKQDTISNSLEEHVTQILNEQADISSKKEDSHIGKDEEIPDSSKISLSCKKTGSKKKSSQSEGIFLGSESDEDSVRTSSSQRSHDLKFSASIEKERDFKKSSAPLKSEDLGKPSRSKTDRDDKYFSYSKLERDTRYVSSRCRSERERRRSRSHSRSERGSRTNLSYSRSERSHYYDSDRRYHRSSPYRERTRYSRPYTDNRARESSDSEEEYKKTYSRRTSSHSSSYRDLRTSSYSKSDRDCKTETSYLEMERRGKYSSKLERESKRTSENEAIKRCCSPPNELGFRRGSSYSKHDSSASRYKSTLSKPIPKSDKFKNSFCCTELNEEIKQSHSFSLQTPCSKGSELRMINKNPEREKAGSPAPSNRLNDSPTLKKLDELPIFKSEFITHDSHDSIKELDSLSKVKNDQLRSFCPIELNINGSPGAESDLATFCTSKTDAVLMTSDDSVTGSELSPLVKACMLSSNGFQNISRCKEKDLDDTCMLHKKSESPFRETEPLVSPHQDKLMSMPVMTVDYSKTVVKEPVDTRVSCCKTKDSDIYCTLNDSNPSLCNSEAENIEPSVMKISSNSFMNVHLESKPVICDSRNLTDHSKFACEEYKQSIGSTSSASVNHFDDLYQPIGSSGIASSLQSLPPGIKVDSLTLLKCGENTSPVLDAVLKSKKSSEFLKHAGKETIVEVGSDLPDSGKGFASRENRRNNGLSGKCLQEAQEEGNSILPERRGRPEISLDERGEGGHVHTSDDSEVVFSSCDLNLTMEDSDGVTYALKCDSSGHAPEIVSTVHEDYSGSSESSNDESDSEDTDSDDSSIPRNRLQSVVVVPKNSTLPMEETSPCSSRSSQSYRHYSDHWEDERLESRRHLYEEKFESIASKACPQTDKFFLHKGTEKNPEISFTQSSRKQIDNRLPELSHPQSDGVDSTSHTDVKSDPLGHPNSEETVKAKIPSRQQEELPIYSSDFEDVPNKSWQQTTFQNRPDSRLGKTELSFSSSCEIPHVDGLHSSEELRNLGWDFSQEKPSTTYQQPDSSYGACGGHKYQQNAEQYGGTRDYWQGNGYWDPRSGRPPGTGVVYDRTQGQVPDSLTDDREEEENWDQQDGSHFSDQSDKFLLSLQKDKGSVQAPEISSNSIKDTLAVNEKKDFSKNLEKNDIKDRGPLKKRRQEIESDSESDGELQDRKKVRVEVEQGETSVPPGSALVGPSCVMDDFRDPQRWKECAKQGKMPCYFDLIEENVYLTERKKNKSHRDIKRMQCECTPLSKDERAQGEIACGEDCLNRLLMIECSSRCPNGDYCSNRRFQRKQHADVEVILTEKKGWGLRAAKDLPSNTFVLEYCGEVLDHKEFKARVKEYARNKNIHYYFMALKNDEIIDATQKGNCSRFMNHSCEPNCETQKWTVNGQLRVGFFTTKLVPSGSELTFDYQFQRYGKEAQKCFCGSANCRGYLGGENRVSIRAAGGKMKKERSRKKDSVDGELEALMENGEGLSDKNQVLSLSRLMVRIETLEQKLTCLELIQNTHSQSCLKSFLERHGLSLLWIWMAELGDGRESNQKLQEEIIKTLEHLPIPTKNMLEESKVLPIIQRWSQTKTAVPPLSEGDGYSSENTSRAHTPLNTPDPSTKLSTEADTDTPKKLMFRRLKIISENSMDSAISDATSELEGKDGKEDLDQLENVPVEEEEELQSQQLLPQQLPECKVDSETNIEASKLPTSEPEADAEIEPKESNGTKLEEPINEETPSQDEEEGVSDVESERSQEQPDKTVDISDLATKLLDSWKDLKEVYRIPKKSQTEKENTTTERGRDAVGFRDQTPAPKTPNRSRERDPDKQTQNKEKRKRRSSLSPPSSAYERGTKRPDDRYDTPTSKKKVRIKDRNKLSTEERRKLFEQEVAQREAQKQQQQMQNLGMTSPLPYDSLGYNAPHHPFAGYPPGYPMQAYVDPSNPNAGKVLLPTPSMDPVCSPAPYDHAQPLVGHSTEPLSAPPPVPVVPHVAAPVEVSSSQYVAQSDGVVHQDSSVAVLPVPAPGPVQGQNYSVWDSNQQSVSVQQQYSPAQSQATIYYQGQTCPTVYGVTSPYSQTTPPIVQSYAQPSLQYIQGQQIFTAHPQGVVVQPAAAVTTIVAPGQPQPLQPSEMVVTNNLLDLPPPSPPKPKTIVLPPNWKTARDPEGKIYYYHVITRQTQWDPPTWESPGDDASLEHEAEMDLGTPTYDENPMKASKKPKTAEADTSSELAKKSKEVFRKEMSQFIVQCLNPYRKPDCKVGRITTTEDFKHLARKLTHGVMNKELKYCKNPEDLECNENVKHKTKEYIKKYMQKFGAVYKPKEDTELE

% of activity ([1]; at 1 µM): 98% | % of activity ([1]; at 10 µM): 98.3%
Structure (SMILES): Cc1cc(C)cc([C@H]2c3cc(C)ccc3NC(=O)CN2C(=O)c2ccc(Br)s2)c1

Structure (SMILES): O=C(NOC[C@H](O)CO)c1ccc(F)c(F)c1Nc1ccc(I)cc1F
% of control [2]: 94% | % of control [3]: 82%

Structure (SMILES): CN(C)C/C=C/C(=O)Nc1ccc(C(=O)N2CCCC(Nc3ncc(Cl)c(-c4c[nH]c5ccccc45)n3)C2)cc1 (configuration not stated)
% of control [4]: 100%

Structure (SMILES): C=CC(=O)Nc1cc(-n2c(=O)ccc3cnc4ccc(-c5ccc(NS(C)(=O)=O)cc5)cc4c32)ccc1C
% of control ([5]; at 1 µM): 100% | % of control ([5]; at 10 µM): 92%
